Measured values taken from US20220242879A1, “FUSED HETEROCYCLE DERIVATIVES” (Janssen Sciences Ireland Unlimited Company, priority 2019, published 2022).

How the values were obtained:
HBV [1] = experiment: Anti-HBV activity, HepG2.117 cell line, intracellular HBV DNA by real-time PCR; assay type: cell-based, Hepatitis B virus; conditions: mean value; HepG2.117 cells, 3 days of treatment, intracellular HBV DNA; read-out: HBV-AVE-HepG2.117 EC50
Method: The anti HBV activity was measured using the HepG2.117 cell line, a stable, inducibly HBV producing cell line, which replicates HBV in the absence of doxicycline (Tet-off system). The HepG2 cell line is available from ATCC® under number HB-8065. Transfection of the HepG2 cell line can be as described in Sun and Nassal 2006 Journal of Hepatology 45 (2006) 636-645 “Stable HepG2- and Huh7-based human hepatoma cell lines for efficient regulated expression of infectious hepatitis B virus”.
For the antiviral assay, HBV replication was induced, followed by a treatment with serially diluted compound in 96-well plates. After 3 days of treatment, the antiviral activity was determined by, quantification of intracellular HBV DNA using real-time PCR and an HBV specific primer set and probe.

HepG2.117 cells = experiment: Cytotoxicity, ATPlite Luminescence Assay; assay type: cell-based, human; conditions: mean value; cells incubated for 3 days, viability by ATPlite; read-out: TOX-HepC2.117 CC50
Method: Cytotoxicity of the compounds was tested using HepG2 or HepG2.117 cells, incubated for 3 days in the presence of compounds. The viability of the cells was assessed using the PERKIN ELMER ATPlite Luminescence Assay System.”

HBV [2] = experiment: HBV replication inhibition assay (BDNA assay), HepG2.2.15 cells; assay type: cell-based, Hepatitis B virus; conditions: 6 days, HBV DNA in supernatant by branched DNA QuantiGene
Method: HBV replication inhibition by the disclosed compounds were determined in cells infected or transfected with HBV or cells with stably integrated HBV, such as HepG2.2.15 cells (Sells et al. 1987). In this example, HepG2.2.15 cells were maintained in cell culture medium containing 10% fetal bovine serum (FBS), Geneticin, L-glutamine, penicillin and streptomycin. HepG2.2.15 cells were seeded in 96-well plates at a density of 40,000 cells/well and were treated with serially diluted compounds at a final DMSO concentration of 0.5% either alone or in combination by adding drugs in a checker box format. […] HBV DNA was denatured by addition of 0.2 M NaOH and detected using a branched DNA (BDNA) QuantiGene assay kit according to manufacturer recommendation (Affymetrix). HBV DNA levels were also quantified using qPCR, based on amplification of encapsidated HBV DNA extraction with QuickExtraction Solution (Epicentre Biotechnologies) and amplification of HBV DNA using HBV specific PCR probes that can hybridize to HBV DNA and a fluorescently labeled probe for quantitation. In addition, cell viability of HepG2.2.15 cells incubated with test compounds alone or in combination was determined by using CellTitre-Glo reagent according to the manufacturer protocol (Promega). […]

Row | Structure (SMILES) | EC50 (HBV [1]) [nM] | CC50 (HepG2.117 cells) [nM] | EC50 (HBV [2]) [nM]
1 | CNC(=O)[C@@H]1Cc2conc2-c2c3c(nn2C1)C[C@@H](C)N(C(=O)c1ccc(Cl)c(Cl)c1)C3 (single isomer, unassigned) [Compound 47] | 265 | > 50000 | –
2 | N#Cc1cc(NC(=O)N2CCc3nn4c(c3C2)-c2nocc2CC(COCC(F)F)C4)ccc1F (single isomer, unassigned) [Example 7a, (5R*)-N-(3-Cyano-4-fluorophenyl)-5-((2,2-difluoroethoxy)methyl)-5,6,9,10-tetrahydro-4H-isoxazolo[3,4-c]pyrido[4′,3′:3,4]pyrazolo[1,5-a]azepine-11(12H)-carboxamide] | – | – | 21
